“And” between values parts separate entries of the source, which are not always exact repeats. Equal entries are not always repeated.
Tested on: TSC2−/− MEFs
Assay: Rapamycin screen: SILAC quantitative phosphoproteomics (two biological replicates)
Format: cell-based, mouse
Description: Two sets of large-scale, quantitative phospho-proteomics experiments were performed to fully define how mTOR-containing complexes signal to downstream effectors (FIG. 1A). The first SILAC experiment (rapamycin screen) was performed using growth factor-deprived TSC2−/− mouse embryonic fibroblasts (MEFs).
Two populations of TSC2−/− cells were grown in parallel, one in conventional media (“light”) and the other in media containing [^13C6^15N2]lysine and [^13C6^15N4]arginine (“heavy”) (FIG. 1A and Table 5). […] We performed two biological replicates of this experimental design with cross-labeling (swapping the labeled state of the rapamycin-treated cells, Table 5), from which a total of 14,635 (FDR=0.25%) and 32,500 (FDR=0.28%) phosphopeptides were identified, respectively. These corresponded to identification of at least 4,484 and 6,832 unique phosphorylation sites on 1,615 and 1,866 proteins, respectively. The quantitation was highly accurate (Table 5) with 93.7% of the phosphoproteome changing less than 50% in abundance between the rapamycin-treated (light) and control (heavy) cells (second biological replicate experiment, Median Log2(H/L)=−0.02 and standard deviation Log2(H/L)=0.53, FIG. 1A). […] Note that the Rapamycin screen includes two biological replicates.
Using this criteria, several hundred peptides (corresponding to 148 and 85 proteins respectively, in the two biological replicates, Table 11) were determined to contain rapamycin-sensitive phosphorylation sites. […] Note that there are two biological replicate experiments for the rapamycin screen (“Table 11 Rapa Replicate 1,” and “Table 11 Rapa Replicate 2,” respectively) and one Ku-0063749 replicate (“Table 11 Ku”). Treatment for the light and heavy cells in each experiment is described in FIG. 1C. We observed a similar distribution for the phosphopeptides in the […] biological replicate experiment and found 85 proteins (Table 11) that carried rapamycin-sensitive phosphorylation sites.
The analysis identified 4,484 and 6,832 unique phosphorylation sites on 1,615 and 1,866 proteins from two biological replicate experiments, respectively, and achieved a high level of accuracy in quantitation (Table 5). […] A representative identification of the known rapamycin-sensitive phosphorylation sites on ribosomal protein S6 is shown in FIG. 1B.
TSC2−/− MEFs were used in the rapamycin screen due to constitutive hyperactivation of mTORC1 signaling in this cell line. Cells were grown in light ([^12C6^14N2]Lys, [^12C6^14N4]Arg) and heavy ([^13C6^15N2]Lys, [^13C6^15N4]Arg) DMEM (Cambridge Isotope Labs), respectively. Both light and heavy DMEM were supplemented with 10% dialyzed FBS (Invitrogen). Cells were serum-deprived for 17 hours and cells were cultured inheavy media were treated with 20 nM rapamycin for two hours. We performed two biological replicates of this experimental design with cross-labeling (swapping the labeled state of the rapamycin-treated cells).

[1] = downregulated phosphorylation, TSC2−/− MEFs, 20 nM rapamycin 2 h vs DMSO, second biological replicate

Q: Which results are given for CO[C@H]1C[C@@H]2CC[C@@H](C)[C@@](O)(O2)C(=O)C(=O)N2CCCC[C@H]2C(=O)O[C@H]([C@H](C)C[C@@H]2CC[C@@H](O)[C@H](OC)C2)CC(=O)[C@H](C)/C=C(\C)[C@@H](O)[C@@H](OC)C(=O)[C@H](C)C[C@H](C)/C=C/C=C/C=C/1C [rapamycin]?
A: Log2 Area (H/L) Ratio (Ahctf1 phosphopeptide NGVSLFNS*PKTEQPSPVVHSFPHPELPEAFVGTPISNTSQR, SEQ ID NO: 1120, rapamycin screen): 1.0661; Log2 Area (H/L) Ratio (Ahctf1 phosphopeptide NGVSLFNSPK@T*EQPSPVVHSFPHPELPEAFVGTPISNTSQR^, SEQ ID NO: 1119, rapamycin screen): 1.0661; Log2 Area (H/L) Ratio (Ahctf1 phosphopeptide NGVSLFNSPK@TEQPSPVVHS*FPHPELPEAFVGTPISNTSQR^, SEQ ID NO: 1121, rapamycin screen): 1.0661; Log2 Area (H/L) Ratio (Ahnak phosphopeptide S*NS*FSDERAEFSAPSTPTGTLEFAGGDAK@, SEQ ID NO: 1147, rapamycin screen): 1.0143; Log2 Area (H/L) Ratio (Ahnak phosphopeptide S*NS*FSDEREFSAPSTPTGTLEFAGGDAK, SEQ ID NO: 1148, rapamycin screen): 1.0143; Log2 Area (H/L) Ratio (Ahnak phosphopeptide S*NS*FSDEREFSAPSTPTGTLEFAGGDAK, SEQ ID NO: 1149, rapamycin screen): 1.0143; Log2 Area (H/L) Ratio (Arhgap17 phosphopeptide LGEQGPEPGPT*PPQT*PT*PPST*PPLAK, SEQ ID NO: 1124, rapamycin screen): 1.0618; Log2 Area (H/L) Ratio (Arid1a phosphopeptide GPS*PSPVGS*PASVAQSR^, SEQ ID NO: 1151, rapamycin screen): 1.0107; Log2 Area (H/L) Ratio (Atxn2 phosphopeptide TS*PAGGTWSSVVSGVPR, SEQ ID NO: 1157, rapamycin screen): 1.0015; Log2 Area (H/L) Ratio (Atxn2 phosphopeptide TS*PAGGTWSSVVSGVPR^, SEQ ID NO: 1156, rapamycin screen): 1.0015; Log2 Area (H/L) Ratio (Azi1 phosphopeptide ANNAGASIYPTGPADPCPPASES*S*PEQWQSPEDKPQDIHSQGEAR, SEQ ID NO: 1138, rapamycin screen): 1.0268; Log2 Area (H/L) Ratio (Dlg5 phosphopeptide SS*SHLDPAATPHSTLQGSSAGTPEHPSVIDPLMEQDEGPGTPPAK@, SEQ ID NO: 1129, rapamycin screen): 1.0498; Log2 Area (H/L) Ratio (Eif4ebp1 phosphopeptide NS*PVAK@T*PPK@DLPAIPGVTSPTSDEPPM#QASQSQLPSSPEDK@, SEQ ID NO: 1143, rapamycin screen): 1.0227; Log2 Area (H/L) Ratio (Eif4ebp1 phosphopeptide NS*PVAKT*PPKDLPAIPGVTSPT*SDEPPMQASQSQLPSS*PEDK, SEQ ID NO: 1150, rapamycin screen): 1.0129; Log2 Area (H/L) Ratio (Eif4ebp2 phosphopeptide TVAISDAAQLPQDYCTT*PGGTLFSTT*PGGTRIIYDR, SEQ ID NO: 1137, rapamycin screen): 1.0271; Log2 Area (H/L) Ratio (Eif4ebp2 phosphopeptide TVAISDAAQLPQDYCTT*PGGTLFSTT*PGGTR^IIYDR^, SEQ ID NO: 1136, rapamycin screen): 1.0271; Log2 Area (H/L) Ratio (Erbb2ip phosphopeptide VGS*EHSLLDPPGK, SEQ ID NO: 1135, rapamycin screen): 1.0307; Log2 Area (H/L) Ratio (Erf phosphopeptide FPPST*PSEVLS*PTEDPRS*PPACSSSSSSLFSAVVAR, SEQ ID NO: 1154, rapamycin screen): 1.0039; Log2 Area (H/L) Ratio (Fam129a phosphopeptide HNLFEDNM#ALPSESVSS*LTDLK, SEQ ID NO: 1142, rapamycin screen): 1.0232; Log2 Area (H/L) Ratio (Fam129a phosphopeptide HNLFEDNMALPSES*VSSLTDLK@TAMGS*NQAS*PAR^R^, SEQ ID NO: 1152, rapamycin screen): 1.0048; Log2 Area (H/L) Ratio (Fam129a phosphopeptide HNLFEDNMALPSESVSSLT*DLK@TAMGS*NQAS*PAR^R^, SEQ ID NO: 1153, rapamycin screen): 1.0048; Log2 Area (H/L) Ratio (Hells phosphopeptide S*INYSELDQFPSELEK, SEQ ID NO: 1132, rapamycin screen): 1.0332; Log2 Area (H/L) Ratio (Hells phosphopeptide S*INYSELDQFPSELEK@, SEQ ID NO: 1133, rapamycin screen): 1.0332; Log2 Area (H/L) Ratio (Hells phosphopeptide S*INYSELDQFPSELEK@, SEQ ID NO: 1134, rapamycin screen): 1.0332; Log2 Area (H/L) Ratio (Ncaph2 phosphopeptide NGS*PVPVPDIS*QEPDGPALSGGEEDAEDGAEPLEVALEPAEPR^, SEQ ID NO: 1127, rapamycin screen): 1.0598; Log2 Area (H/L) Ratio (Ncaph2 phosphopeptide NGS*PVPVPDISQEPDGPALS*GGEEDAEDGAEPLEVALEPAEPR, SEQ ID NO: 1126, rapamycin screen): 1.0598; Log2 Area (H/L) Ratio (Ncaph2 phosphopeptide NGS*PVPVPDISQEPDGPALS*GGEEDAEDGAEPLEVALEPAEPR^, SEQ ID NO: 1125, rapamycin screen): 1.0598; Log2 Area (H/L) Ratio (Pbx1 phosphopeptide TAVTATNVSAHGSQANS*PSTPNSAGGY*PSPCYQPDR^R^, SEQ ID NO: 1128, rapamycin screen): 1.054; Log2 Area (H/L) Ratio (Pds5b phosphopeptide AES*PETSAVESTQST*PQK, SEQ ID NO: 1141, rapamycin screen): 1.0246; Log2 Area (H/L) Ratio (Pds5b phosphopeptide AES*PETSAVESTQST*PQK@, SEQ ID NO: 1139, rapamycin screen): 1.0246; Log2 Area (H/L) Ratio (Pds5b phosphopeptide AES*PETSAVESTQST*PQK@, SEQ ID NO: 1140, rapamycin screen): 1.0246; Log2 Area (H/L) Ratio (Phldb1 phosphopeptide WAAHGTS*PEDFSLTLGAR^, SEQ ID NO: 1118, rapamycin screen): 1.068; Log2 Area (H/L) Ratio (Ranbp10 phosphopeptide SQDS*YPGS*PSLSPR, SEQ ID NO: 1161, rapamycin screen): 1.0009; Log2 Area (H/L) Ratio (Ranbp10 phosphopeptide SQDSYPGS*PSLS*PR, SEQ ID NO: 1158, rapamycin screen): 1.0009; Log2 Area (H/L) Ratio (Ranbp10 phosphopeptide SQDSYPGS*PSLS*PR^, SEQ ID NO: 1159, rapamycin screen): 1.0009; Log2 Area (H/L) Ratio (Ranbp10 phosphopeptide SQDSYPGS*PSLS*PR^, SEQ ID NO: 1160, rapamycin screen): 1.0009; Log2 Area (H/L) Ratio (Ranbp10 phosphopeptide SQDSYPGS*PSLS*PR^, SEQ ID NO: 1162, rapamycin screen): 1.0009; Log2 Area (H/L) Ratio (Rb1 phosphopeptide DGEGPDNLEPACPLSLPLQGNHTAADMYLS*PLRS*PK, SEQ ID NO: 1123, rapamycin screen): 1.0618; Log2 Area (H/L) Ratio (Rb1 phosphopeptide DGEGPDNLEPACPLSLPLQGNHTAADMYLS*PLR^S*PK@, SEQ ID NO: 1122, rapamycin screen): 1.0618; Log2 Area (H/L) Ratio (Samhd1 phosphopeptide CDGS*PR^T*PPS*TPPATANLSADDDFQNTDLR^, SEQ ID NO: 1155, rapamycin screen): 1.0027; Log2 Area (H/L) Ratio (Shroom2 phosphopeptide SRS*S*PSTDHYSQEVPVEPNR, SEQ ID NO: 1144, rapamycin screen): 1.0176; Log2 Area (H/L) Ratio (Shroom2 phosphopeptide SRS*S*PSTDHYSQEVPVEPNR, SEQ ID NO: 1145, rapamycin screen): 1.0176; Log2 Area (H/L) Ratio (Shroom2 phosphopeptide SR^S*S*PSTDHYSQEVPVEPNR^, SEQ ID NO: 1146, rapamycin screen): 1.0176; Log2 Area (H/L) Ratio (Tox4 phosphopeptide LSTTPS*PTNS*LHEDGVDDFRR, SEQ ID NO: 1130, rapamycin screen): 1.0342; Log2 Area (H/L) Ratio (Tox4 phosphopeptide LSTTPS*PTNS*LHEDGVDDFRR, SEQ ID NO: 1164, rapamycin screen): 1.0005; Log2 Area (H/L) Ratio (Tox4 phosphopeptide LSTTPS*PTNS*LHEDGVDDFR^R^, SEQ ID NO: 1131, rapamycin screen): 1.0342; Log2 Area (H/L) Ratio (Tox4 phosphopeptide LSTTPS*PTNS*LHEDGVDDFR^R^, SEQ ID NO: 1163, rapamycin screen): 1.0005; Median (treated/ctrl) fold-change of phosphopeptide Eif4ebp1 S64, T69 [1]: 2.8 fold; Median (treated/ctrl) fold-change of phosphopeptide Eif4ebp2 S65, T70 [1]: 39.1 fold; Median (treated/ctrl) fold-change of phosphopeptide Eif4ebp2 T37, T46 [1]: 2.3 fold; Median (treated/ctrl) fold-change of phosphopeptide LSSLRAS*TS*KSES*S*QK, RPS6 S240, S242, S246, S247 [1]: 4.5 fold; Median (treated/ctrl) fold-change of phosphopeptide MNILSS*QS*PLHPSTLNAVIHR, Grb10 S421, S423 (isoform 3; S501/S503 in isoform 1) [1]: more than 27 fold and 27.3 fold; Median (treated/ctrl) fold-change of phosphopeptide RLS*S*LRASTSK, RPS6 S235, S236 [1]: 30.5 fold; Median (treated/ctrl) fold-change of phosphopeptide Rps6kb1 S441, T444, S447 [1]: 2.8 fold; Median (treated/ctrl) fold-change of phosphopeptide S*LPVSVPVWAFK, Akt1s1 S184 [1]: 2.2 fold; Median (treated/ctrl) fold-change of phosphopeptide SFS*KEVEER, Eif4g1 S1189 [1]: 2.8 fold; Median (treated/ctrl) fold-change of phosphopeptide SRT*GS*ESSQTGASATSGR, Eif4b T420, S422 [1]: 4.3 fold; Median (treated/ctrl) fold-change of phosphopeptide TGS*ESS*QTGASATSGR, Eif4b S422, S425 [1]: 4.6 fold; Median (treated/ctrl) fold-change of phosphopeptide TTS*FAESCKPVQQPSAFGSMK, Gsk3β S9 [1]: approximately 3.3 fold and 3.3 fold; Median (treated/ctrl) fold-change of phosphopeptide ULK1 S747, S757, T763 [1]: 4 fold and 4.1 fold; Median (treated/ctrl) fold-change of triply phosphorylated Grb10 peptide T76, S96, S104 [1]: 5.4 fold; decrease of 4EBP1 T36/T45 phosphorylation after rapamycin treatment (rapamycin screen): 20%
